Tested on: ESECT-40 cells
Assay: Western blotting of growth promoting and proapoptotic gene products, ESECT-40
Format: cell-based, human
Text: Reagents and Antibodies: Annexin V Dead Cell Apoptosis Kit (V13241) was purchased from Invitrogen. The primary antibodies used were EGFR (4267, 1:1000), Survivin (2808, 1:1000), c-Caspase-3 (9661, 1; 1000), c-PARP (9541, 1:1000) from Cell Signaling Technology (Danvers, MA) and c-Myc (sc-40, 1:500), Bcl-2 (sc-509, 1:500) and Bax (sc-20067, 1:500) from Santacruz Biotechnology (Santacruz, CA), NR4A1 (ab109180, 1:3000) and α-SMA (ab32575, 1:3000) from Abcam (Cambridge, MA), β-Actin (A1978, 1:10000) from Sigma Aldrich Corporation (Milwaukee, WI). COL1A1 (GTX112731, 1:2000), CTGF (GTX124232, 1:2000) and FN (GTX112794, 1:2000) from GeneTex, Inc. (Irvine, CA). Secondary antibodies for rabbit (7074), mouse (7076) and Anti-rabbit Alexa Fluor (4412) purchased from Cell Signaling Technology (Danvers, MA). […]
Western Blotting: ESECT-7 and ESECT-40 cells (2×105) were seeded and allowed to attach for 24 hr, and cells were then treated for 24 hr with either DMSO or different concentrations of DIM-C-pPhOH and DIM-C-pPhOH-3-Cl-5-OCH3. Cells were then lysed and whole-cell lysates were resolved in 10% SDS-PAGE gels and proteins were transferred using PVDF membrane by wet blotting followed by primary and secondary antibody incubation and detected using ECL reagent as described.

For `COc1cc(C(c2c[nH]c3ccccc23)c2c[nH]c3ccccc23)cc(Cl)c1O` [DIM-C-pPhOH-3-Cl-5-OCH3], the “expression of EGFR and cMyc” value (5-10 μM, 24 hr, FIG. 2D) was “downregulated” and the “markers of apoptosis (downregulation of survivin and Bcl-2, induced Bax, cleaved PARP and caspase-3)” value (Five μM, 24 hours, FIG. 3C) was “significantly induced several markers of apoptosis”.
